The assay deals with T1, EPHA6 (Homo sapiens, UniProt Q9UF33).
T1 construct: purchased Thermo Fisher Scientific (Life Technologies) SelectScreen
Nature of the assay: SelectScreen LanthaScreen. In kind it is binding. The following applies: read-out: % displacement. The essentials: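 Percent values come from Thermo SelectScreen profiling of NU5455, combining activity and binding assays. CSF1R was run in Z'LYTE format at Km app ATP, and CAMK1 in Adapta format with ATP listed at 10.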
A general note: Time-resolved FRET reads energy transfer from a long-lived donor to a nearby acceptor.

Results on one compound are retold here after PMC6934184, “Selective DNA-PKcs inhibition extends the therapeutic index of localized radiotherapy and chemotherapy” (The Journal of Clinical Investigation, 2019).

T1 sequence (Q9UF33 23-1036): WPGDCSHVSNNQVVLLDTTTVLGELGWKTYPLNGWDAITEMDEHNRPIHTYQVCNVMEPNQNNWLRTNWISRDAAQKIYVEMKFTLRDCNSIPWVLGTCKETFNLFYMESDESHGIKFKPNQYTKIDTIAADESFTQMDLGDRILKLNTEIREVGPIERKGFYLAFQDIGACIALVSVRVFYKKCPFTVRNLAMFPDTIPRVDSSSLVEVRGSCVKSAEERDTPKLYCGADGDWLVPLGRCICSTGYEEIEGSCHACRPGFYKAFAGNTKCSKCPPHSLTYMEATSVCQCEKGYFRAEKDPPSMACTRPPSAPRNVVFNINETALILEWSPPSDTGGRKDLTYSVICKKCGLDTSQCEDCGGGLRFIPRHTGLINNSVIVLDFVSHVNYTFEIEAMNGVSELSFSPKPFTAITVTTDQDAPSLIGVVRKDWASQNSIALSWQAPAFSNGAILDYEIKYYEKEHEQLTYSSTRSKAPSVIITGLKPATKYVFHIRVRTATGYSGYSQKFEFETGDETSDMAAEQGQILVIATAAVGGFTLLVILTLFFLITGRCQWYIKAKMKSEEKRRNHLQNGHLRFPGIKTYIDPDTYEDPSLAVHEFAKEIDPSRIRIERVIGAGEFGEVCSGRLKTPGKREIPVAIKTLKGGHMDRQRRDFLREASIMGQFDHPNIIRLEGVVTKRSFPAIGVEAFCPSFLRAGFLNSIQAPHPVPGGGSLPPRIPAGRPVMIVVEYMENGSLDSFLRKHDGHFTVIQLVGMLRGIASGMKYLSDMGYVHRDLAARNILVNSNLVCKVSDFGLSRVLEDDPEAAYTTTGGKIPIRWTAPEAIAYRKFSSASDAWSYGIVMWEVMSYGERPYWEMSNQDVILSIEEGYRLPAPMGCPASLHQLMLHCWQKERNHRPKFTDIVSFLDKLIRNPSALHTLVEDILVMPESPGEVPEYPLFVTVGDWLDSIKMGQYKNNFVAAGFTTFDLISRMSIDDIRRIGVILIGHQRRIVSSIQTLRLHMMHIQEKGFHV

As to `CN(C(=O)CN1CCOCC1)c1ccc2sc3c(-c4cccc5c(=O)cc(N6CC7CCC(C6)O7)oc45)cccc3c2c1` [NU5455], the inhibition at 1 µM came out at 1.6%.
